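Assay format: 96-well plates, 48-hour exposure. GI50 marks 50% less growth.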 Active and inactive are the calls of the source. No stated cut-off is given here; in the data, active = GI50 up to about 1.1 µM and inactive = higher.
Legend:
Test in all cases: NCI-60 cell line screen, 48 h
BT-549 = test system: BT-549
CAKI-1 = test system: CAKI-1
COLO 205 = test system: COLO 205
EKVX = test system: EKVX
HOP-62 = test system: HOP-62
KM12 = test system: KM12
MCF7 = test system: MCF7
MDA-MB-231 = test system: MDA-MB-231
MDA-MB-435 = test system: MDA-MB-435
MDA-N = test system: MDA-N
Malme-3M = test system: Malme-3M
NCI-H23 = test system: NCI-H23
NCI-H460 = test system: NCI-H460
OVCAR-3 = test system: OVCAR-3
OVCAR-4 = test system: OVCAR-4
SF-539 = test system: SF-539
SK-OV-3 = test system: SK-OV-3
UACC-62 = test system: UACC-62
SK-MEL-28 = test system: SK-MEL-28
TK-10 = test system: TK-10

SMILES | GI50 (BT-549) | GI50 (CAKI-1) | GI50 (COLO 205) | GI50 (EKVX) | GI50 (HOP-62) | GI50 (KM12) | GI50 (MCF7) | GI50 (MDA-MB-231) | GI50 (MDA-MB-435) | GI50 (MDA-N) | GI50 (Malme-3M) | GI50 (NCI-H23) | GI50 (NCI-H460) | GI50 (OVCAR-3) | GI50 (OVCAR-4) | GI50 (SF-539) | GI50 (SK-OV-3) | GI50 (UACC-62) | GI50 (SK-MEL-28) | GI50 (TK-10)
COc1ccc(-c2nc(O)c3ccccc3n2)cc1OC | 64 µM (inactive) | > 100 µM (inactive) | > 100 µM (inactive) | 18.1 µM (inactive) | 33.8 µM (inactive) | > 100 µM (inactive) | > 100 µM (inactive) | 24.4 µM (inactive) | > 100 µM (inactive) | > 100 µM (inactive) | > 100 µM (inactive) | > 100 µM (inactive) | > 100 µM (inactive) | > 100 µM (inactive) | > 100 µM (inactive) | 37.8 µM (inactive) | 34.2 µM (inactive) | > 100 µM (inactive) | – | –
Cc1c(C(=O)OCc2ccccc2)[n+]([O-])c2ccccc2[n+]1[O-] | 57.9 µM (inactive) | 24.5 µM (inactive) | 18.5 µM (inactive) | 25.8 µM (inactive) | 22.3 µM (inactive) | 28.1 µM (inactive) | 19.5 µM (inactive) | 20.8 µM (inactive) | 26.4 µM (inactive) | 41.6 µM (inactive) | – | 33.7 µM (inactive) | 25.4 µM (inactive) | 30.3 µM (inactive) | 20.8 µM (inactive) | 42.1 µM (inactive) | 28 µM (inactive) | 25.6 µM (inactive) | 66.1 µM (inactive) | 33.2 µM (inactive)
OC(C#Cc1ccccc1)(c1ccccc1)c1ccccc1 | 51.1 µM (inactive) | 22.4 µM (inactive) | 50.7 µM (inactive) | 23.8 µM (inactive) | > 100 µM (inactive) | 28 µM (inactive) | 24 µM (inactive) | 51.8 µM (inactive) | 24.3 µM (inactive) | 23.4 µM (inactive) | 24.2 µM (inactive) | 53.5 µM (inactive) | 20.9 µM (inactive) | 26.7 µM (inactive) | 41.8 µM (inactive) | 77.1 µM (inactive) | > 100 µM (inactive) | 35.4 µM (inactive) | 51.1 µM (inactive) | 31 µM (inactive)
COc1nc(C#CCCCC#N)nc(OC)n1 | 15.9 µM (inactive) | 12.8 µM (inactive) | 29.9 µM (inactive) | 19.8 µM (inactive) | 24.2 µM (inactive) | 16.9 µM (inactive) | 5.27 µM (inactive) | 11.7 µM (inactive) | 10.4 µM (inactive) | 15.7 µM (inactive) | 13.4 µM (inactive) | 13.8 µM (inactive) | 26.3 µM (inactive) | 13.3 µM (inactive) | 3.82 µM (inactive) | 20.5 µM (inactive) | 90.6 µM (inactive) | 9.62 µM (inactive) | 15.5 µM (inactive) | 21.6 µM (inactive)
C=CC1(CCC(Br)C(C)(C)Cl)CO1 (configuration not stated) | > 10 µM (inactive) | > 10 µM (inactive) | > 10 µM (inactive) | > 10 µM (inactive) | > 10 µM (inactive) | > 10 µM (inactive) | > 10 µM (inactive) | > 10 µM (inactive) | > 10 µM (inactive) | > 10 µM (inactive) | > 10 µM (inactive) | – | > 10 µM (inactive) | > 10 µM (inactive) | – | > 10 µM (inactive) | > 10 µM (inactive) | – | > 10 µM (inactive) | > 10 µM (inactive)
O=C(c1ccccc1)N1OCCC1Nc1ccc(Br)cc1 (configuration not stated) | > 10 µM (inactive) | 4.03 µM (inactive) | 1.81 µM (inactive) | > 10 µM (inactive) | 7.57 µM (inactive) | – | 5.97 µM (inactive) | > 10 µM (inactive) | 0.499 µM (active) | 3.8 µM (inactive) | 3.34 µM (inactive) | > 10 µM (inactive) | 5.45 µM (inactive) | > 10 µM (inactive) | > 10 µM (inactive) | 2.08 µM (inactive) | > 10 µM (inactive) | – | > 10 µM (inactive) | > 10 µM (inactive)
O=C1CC(Cc2n[nH]c3c2CCCC3)CC(=O)N1 | > 100 µM (inactive) | > 100 µM (inactive) | > 100 µM (inactive) | > 100 µM (inactive) | > 100 µM (inactive) | > 100 µM (inactive) | > 100 µM (inactive) | > 100 µM (inactive) | > 100 µM (inactive) | > 100 µM (inactive) | > 100 µM (inactive) | > 100 µM (inactive) | – | > 100 µM (inactive) | > 100 µM (inactive) | > 100 µM (inactive) | > 100 µM (inactive) | > 100 µM (inactive) | > 100 µM (inactive) | > 100 µM (inactive)
CCCCCCCCCCCCCC1=C(O)C(=O)C(CC2=C(O)C(=O)C(CCCCCCCCCCCCC)=C(O)C2=O)=C(O)C1=O | > 100 µM (inactive) | > 100 µM (inactive) | > 100 µM (inactive) | > 100 µM (inactive) | – | > 100 µM (inactive) | > 100 µM (inactive) | 51.9 µM (inactive) | > 10 µM (inactive) | > 100 µM (inactive) | > 100 µM (inactive) | > 100 µM (inactive) | – | > 100 µM (inactive) | – | > 100 µM (inactive) | 44.7 µM (inactive) | > 100 µM (inactive) | > 100 µM (inactive) | 61.4 µM (inactive)
C[C@H](NC(=O)C(C)(Cc1ccc(O)cn1)NC(=O)c1ccccc1)c1ccccc1 (some centres not stated) | > 100 µM (inactive) | > 100 µM (inactive) | > 100 µM (inactive) | > 100 µM (inactive) | > 100 µM (inactive) | > 100 µM (inactive) | > 100 µM (inactive) | > 100 µM (inactive) | > 100 µM (inactive) | > 100 µM (inactive) | > 100 µM (inactive) | > 100 µM (inactive) | – | > 100 µM (inactive) | > 100 µM (inactive) | > 100 µM (inactive) | – | > 100 µM (inactive) | > 100 µM (inactive) | > 100 µM (inactive)
COc1ccc(NC(=O)CC(=O)n2nc(-c3ccccc3)c(/N=N/c3ccc(C)cc3)c2-c2ccccc2)cc1 | 21.2 µM (inactive) | 55.3 µM (inactive) | > 100 µM (inactive) | 21.8 µM (inactive) | 10.4 µM (inactive) | 65.6 µM (inactive) | > 52.1 µM (inactive) | 25.6 µM (inactive) | > 100 µM (inactive) | > 100 µM (inactive) | 31.5 µM (inactive) | 28.4 µM (inactive) | 35.3 µM (inactive) | 43 µM (inactive) | 27.5 µM (inactive) | 25.4 µM (inactive) | 16.4 µM (inactive) | 27.9 µM (inactive) | > 91.6 µM (inactive) | 36.2 µM (inactive)
Cc1noc(-c2ccc(C(=O)O)[nH]2)c1Br | > 100 µM (inactive) | 34.2 µM (inactive) | 26.1 µM (inactive) | 30.9 µM (inactive) | 22.5 µM (inactive) | > 100 µM (inactive) | 50.1 µM (inactive) | > 100 µM (inactive) | > 100 µM (inactive) | > 100 µM (inactive) | 69.8 µM (inactive) | 55.6 µM (inactive) | > 100 µM (inactive) | 23.4 µM (inactive) | 31.8 µM (inactive) | – | 38.6 µM (inactive) | 64.6 µM (inactive) | > 100 µM (inactive) | 31.5 µM (inactive)
CCN(CC)C(=S)SC(C(=O)Nc1nnc(-c2ccccc2)o1)c1ccccc1 (configuration not stated) | 13.1 µM (inactive) | 19.4 µM (inactive) | 30.3 µM (inactive) | 18.4 µM (inactive) | 20.9 µM (inactive) | 20.2 µM (inactive) | 18.5 µM (inactive) | 34.1 µM (inactive) | 17.1 µM (inactive) | 16.6 µM (inactive) | 20.4 µM (inactive) | 15.4 µM (inactive) | 9.1 µM (inactive) | 15.2 µM (inactive) | 25.9 µM (inactive) | 25.8 µM (inactive) | 32.4 µM (inactive) | – | 17.9 µM (inactive) | 44.5 µM (inactive)
O=C(O)[C@@H]1C[C@@H](O)CN1C(=O)OCc1ccccc1 | > 100 µM (inactive) | > 100 µM (inactive) | > 100 µM (inactive) | > 100 µM (inactive) | > 100 µM (inactive) | > 100 µM (inactive) | > 100 µM (inactive) | > 100 µM (inactive) | > 100 µM (inactive) | > 100 µM (inactive) | > 100 µM (inactive) | > 100 µM (inactive) | > 100 µM (inactive) | > 100 µM (inactive) | > 100 µM (inactive) | > 100 µM (inactive) | > 100 µM (inactive) | > 100 µM (inactive) | > 100 µM (inactive) | > 100 µM (inactive)
COC(=O)NC(Nc1ccc(Cl)cc1Cl)(C(F)(F)F)C(F)(F)F | 17.1 µM (inactive) | 24.5 µM (inactive) | 28.2 µM (inactive) | 48.9 µM (inactive) | > 100 µM (inactive) | 14 µM (inactive) | > 100 µM (inactive) | > 100 µM (inactive) | 25.1 µM (inactive) | 34.7 µM (inactive) | > 100 µM (inactive) | > 100 µM (inactive) | 30 µM (inactive) | 79.6 µM (inactive) | – | 49 µM (inactive) | 73.6 µM (inactive) | 5.2 µM (inactive) | > 100 µM (inactive) | 92.7 µM (inactive)
Cc1ccc([N+](=O)[O-])cc1S(=O)(=O)Nc1ccc(C2=NN(S(=O)(=O)c3cc([N+](=O)[O-])ccc3C)C(c3ccccc3O)C2)cc1 (configuration not stated) | > 100 µM (inactive) | > 100 µM (inactive) | > 100 µM (inactive) | 57.7 µM (inactive) | 47.5 µM (inactive) | > 100 µM (inactive) | > 100 µM (inactive) | 44.6 µM (inactive) | > 100 µM (inactive) | > 100 µM (inactive) | > 100 µM (inactive) | 53.5 µM (inactive) | > 100 µM (inactive) | 67.3 µM (inactive) | > 100 µM (inactive) | – | 51.8 µM (inactive) | 58.5 µM (inactive) | > 100 µM (inactive) | 52.5 µM (inactive)

Reference: ChEMBL document CHEMBL1201862, “PubChem BioAssay data set” (2004)
